Test results: US12077503B2, “Substituted cyclic amides and their use as herbicides” (FMC CORPORATION, priority 2015, dated 2024)

Columns and labels:
Format in all cases: in vivo
[1] = system: giant foxtail (Setaria faberii); test: Test A postemergence; conditions: Setaria faberi, post-emergence, 240 h, postemergence, read-out: Foxtail, Giant plant response rating; for pest or weed control at 125 g/ha: 125 g ai/ha, visual injury on 0 to 100 scale (0 no effect, 100 complete control), approx. 10 d; for pest or weed control at 500 g/ha: 500 g ai/ha, 0 to 100 scale, 0 is no effect, 100 is complete control
In short: (§1)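 Preemergence soil spray on seeded pots or post-emergence spray on 1–2 leaf plants, in loam–sand blend. Greenhouse ~10 d. Visual rating 0–100 against untreated plants.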

[2] = system: barnyardgrass (Echinochloa crus-galli); test: Test A postemergence; conditions: Echinochloa crus-galli, post-emergence, 240 h, postemergence, read-out: Barnyardgrass plant response rating; for pest or weed control at 125 g/ha: 125 g ai/ha, visual injury on 0 to 100 scale (0 no effect, 100 complete control), approx. 10 d; for pest or weed control at 500 g/ha: 500 g ai/ha, 0 to 100 scale, 0 is no effect, 100 is complete control
In short: as §1

[3] = system: ryegrass, Italian (Italian ryegrass, Lolium multiflorum); test: Test A postemergence; conditions: Lolium multiflorum, post-emergence, 240 h, postemergence, read-out: Ryegrass, Italian plant response rating; for pest or weed control at 125 g/ha: 125 g ai/ha, visual injury on 0 to 100 scale (0 no effect, 100 complete control), approx. 10 d; for pest or weed control at 500 g/ha: 500 g ai/ha, 0 to 100 scale, 0 is no effect, 100 is complete control
In short: as §1

[4] = system: pigweed (Amaranthus retroflexus); test: Test A postemergence; conditions: Amaranthus retroflexus, post-emergence, 240 h, postemergence, read-out: Pigweed plant response rating; for pest or weed control at 125 g/ha: 125 g ai/ha, visual injury on 0 to 100 scale (0 no effect, 100 complete control), approx. 10 d; for pest or weed control at 500 g/ha: 500 g ai/ha, 0 to 100 scale, 0 is no effect, 100 is complete control
In short: as §1

[5] = system: ragweed (common ragweed, Ambrosia elatior); test: Test A postemergence; conditions: Ambrosia artemisiifolia, post-emergence, 240 h, postemergence, read-out: Ragweed plant response rating; for pest or weed control at 125 g/ha: 125 g ai/ha, visual injury on 0 to 100 scale (0 no effect, 100 complete control), approx. 10 d; for pest or weed control at 500 g/ha: 500 g ai/ha, 0 to 100 scale, 0 is no effect, 100 is complete control
In short: as §1

[6] = system: Galium (catchweed bedstraw, Galium aparine); test: Test A postemergence; conditions: Galium, post-emergence, 240 h, postemergence, read-out: Galium plant response rating; for pest or weed control at 125 g/ha: 125 g ai/ha, visual injury on 0 to 100 scale (0 no effect, 100 complete control), approx. 10 d; for pest or weed control at 500 g/ha: 500 g ai/ha, 0 to 100 scale, 0 is no effect, 100 is complete control
In short: as §1

[7] = system: wheat (Triticum aestivum); test: Test A postemergence; conditions: Triticum aestivum, post-emergence, 240 h, postemergence, read-out: Wheat plant response rating; for plant injury at 125 g/ha: 125 g ai/ha, visual injury on 0 to 100 scale (0 no effect, 100 complete control), approx. 10 d; for plant injury at 500 g/ha: 500 g ai/ha, 0 to 100 scale, 0 is no effect, 100 is complete control
In short: as §1

Kochia (Kochia scoparia) = test: Test A postemergence; conditions: Bassia scoparia, post-emergence, 240 h, postemergence, read-out: Kochia plant response rating; for pest or weed control at 125 g/ha: 125 g ai/ha, visual injury on 0 to 100 scale (0 no effect, 100 complete control), approx. 10 d; for pest or weed control at 500 g/ha: 500 g ai/ha, 0 to 100 scale, 0 is no effect, 100 is complete control
In short: as §1

corn (Zea mays) = test: Test A postemergence; conditions: Zea mays, post-emergence, 240 h, postemergence, read-out: Corn plant response rating; for plant injury at 125 g/ha: 125 g ai/ha, visual injury on 0 to 100 scale (0 no effect, 100 complete control), approx. 10 d; for plant injury at 500 g/ha: 500 g ai/ha, 0 to 100 scale, 0 is no effect, 100 is complete control
In short: as §1

[8] = system: blackgrass (Alopecurus myosuroides); test: Test A postemergence; conditions: Alopecurus myosuroides, post-emergence, 240 h, postemergence, read-out: Blackgrass plant response rating; for pest or weed control at 125 g/ha: 125 g ai/ha, visual injury on 0 to 100 scale (0 no effect, 100 complete control), approx. 10 d; for pest or weed control at 500 g/ha: 500 g ai/ha, 0 to 100 scale, 0 is no effect, 100 is complete control
In short: as §1

[9] = system: barnyardgrass (Echinochloa crus-galli); test: Test A preemergence; conditions: Echinochloa crus-galli, pre-emergence, 240 h; for pest or weed control at 125 g/ha: 125 g ai/ha; for pest or weed control at 500 g/ha: 500 g ai/ha, visual injury rating about 10 d after treatment, 0 to 100 scale (0 no effect, 100 complete control)
In short: as §1

[10] = system: barnyardgrass (Echinochloa crus-galli); test: Test B flooded paddy test; conditions: Echinochloa crus-galli, 250 g ai/ha, Flood; 0 to 100 scale where 0 is no effect and 100 is complete control; read-out: Barnyardgrass plant response rating
In short: (§2)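 Percent control, visually estimated after 13–15 d in the greenhouse on a 0–100 basis, compares treated pots with untreated ones; compound was put into paddy water 3 cm above the soil when plants had two leaves.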

[11] = system: sedge, umbrella (small-flower umbrella sedge, Cyperus difformis); test: Test B flooded paddy test; conditions: Cyperus difformis, 250 g ai/ha, Flood; 0 to 100 scale where 0 is no effect and 100 is complete control; read-out: Sedge, Umbrella plant response rating
In short: as §2

[12] = system: ducksalad (Heteranthera limosa); test: Test B flooded paddy test; conditions: Heteranthera limosa, 250 g ai/ha, Flood; 0 to 100 scale where 0 is no effect and 100 is complete control; read-out: Ducksalad plant response rating
In short: as §2

rice (Oryra sativa) = test: Test B flooded paddy test; conditions: Oryza sativa, 250 g ai/ha, Flood; 0 to 100 scale where 0 is no effect and 100 is complete control; read-out: Rice plant response rating
In short: as §2

[13] = Preemergence, visual injury rating after approximately 10 d, read-out: Barnyardgrass plant response rating (0 to 100 scale, 0 is no effect, 100 is complete control)
[14] = preemergence, read-out: Barnyardgrass plant response rating
[15] = preemergence, 0 to 100 scale where 0 is no effect and 100 is complete control, approx. 10 d, read-out: Barnyardgrass plant response rating

| Structure (SMILES) | pest or weed control at 125 g/ha [1] [%] | pest or weed control at 500 g/ha [1] [%] | pest or weed control at 125 g/ha [2] [%] | pest or weed control at 500 g/ha [2] [%] | pest or weed control at 125 g/ha [3] [%] | pest or weed control at 500 g/ha [3] [%] | pest or weed control at 125 g/ha [4] [%] | pest or weed control at 500 g/ha [4] [%] | pest or weed control at 125 g/ha [5] [%] | pest or weed control at 500 g/ha [5] [%] | pest or weed control at 125 g/ha [6] [%] | pest or weed control at 500 g/ha [6] [%] | plant injury at 125 g/ha [7] [%] | plant injury at 500 g/ha [7] [%] | pest or weed control at 125 g/ha (Kochia (Kochia scoparia)) [%] | pest or weed control at 500 g/ha (Kochia (Kochia scoparia)) [%] | plant injury at 125 g/ha (corn (Zea mays)) [%] | plant injury at 500 g/ha (corn (Zea mays)) [%] | pest or weed control at 125 g/ha [8] [%] | pest or weed control at 500 g/ha [8] [%] | also measured |
| --- | --- | --- | --- | --- | --- | --- | --- | --- | --- | --- | --- | --- | --- | --- | --- | --- | --- | --- | --- | --- | --- |
| CN1CC(c2ccccc2OC(F)(F)C(F)F)C(C(=O)Nc2cccc(F)c2F)C1=O (stereo not shown) [Compound 1056] | 0 | 20 | 20 | 50 | 0 | 0 | 0 | 0 | 0 | 0 | 0 | 0 | 0 | 0 | 0 | 0 | 0 | 0 | 0 | 0 | pest or weed control at 125 g/ha [9, 13]: 90%; pest or weed control at 500 g/ha [9, 14]: 90%; pest or weed control at 250 g/ha [10]: 0%; pest or weed control at 250 g/ha [11]: 0%; pest or weed control at 250 g/ha [12]: 0%; pest or weed control at 250 g/ha (rice (Oryra sativa)): 20% |
| CC(C)=CC1CNC(=O)C1C(=O)Nc1ccccc1S(C)(=O)=O (stereo not shown) [Compound 1057] | 0 | 0 | 0 | 0 | 0 | 0 | 0 | 0 | 0 | 0 | 0 | 0 | 0 | 0 | 0 | 0 | 0 | 0 | 0 | 0 | pest or weed control at 125 g/ha [9, 13]: 0%; pest or weed control at 500 g/ha [9, 14]: 0%; pest or weed control at 250 g/ha [10]: 30%; pest or weed control at 250 g/ha [11]: 0%; pest or weed control at 250 g/ha [12]: 85%; pest or weed control at 250 g/ha (rice (Oryra sativa)): 0% |
| CN1C[C@H](c2cscn2)[C@@H](C(=O)Nc2cccc(F)c2F)C1=O [Compound 1113] | 0 | 0 | 0 | 0 | 0 | 0 | 0 | 0 | 0 | 0 | 0 | 0 | 0 | 0 | 0 | 0 | 0 | 0 | 0 | 0 | pest or weed control at 125 g/ha [9, 15]: 0%; pest or weed control at 500 g/ha [9, 14]: 0%; pest or weed control at 250 g/ha [10]: 0%; pest or weed control at 250 g/ha [11]: 0%; pest or weed control at 250 g/ha [12]: 30%; pest or weed control at 250 g/ha (rice (Oryra sativa)): 20% |
| CN1C[C@H](c2csc3ccccc23)[C@@H](C(=O)Nc2cccc(F)c2F)C1=O [Compound 1115] | 70 | 90 | 80 | 90 | 20 | 40 | 20 | 20 | 0 | 30 | 0 | 30 | 20 | 30 | 20 | 40 | 40 | 50 | 30 | 40 | pest or weed control at 125 g/ha [9, 15]: 90%; pest or weed control at 500 g/ha [9, 14]: 90%; pest or weed control at 250 g/ha [10]: 45%; pest or weed control at 250 g/ha [11]: 0%; pest or weed control at 250 g/ha [12]: 90%; pest or weed control at 250 g/ha (rice (Oryra sativa)): 30% |
| O=C1NC[C@H](c2csc(C(F)F)c2)[C@H]1C(=O)Nc1ccccc1F [Compound 1118] | 0 | 50 | 80 | 90 | 20 | 50 | 0 | 20 | 0 | 20 | 50 | 60 | 20 | 20 | 0 | 30 | 0 | 20 | 20 | 60 | pest or weed control at 125 g/ha [9, 15]: 80%; pest or weed control at 500 g/ha [9, 14]: 90%; pest or weed control at 250 g/ha [10]: 65%; pest or weed control at 250 g/ha [11]: 0%; pest or weed control at 250 g/ha [12]: 100%; pest or weed control at 250 g/ha (rice (Oryra sativa)): 40% |
